Measurements published in patent publication US20260364077A1, “Method for Predicting Success in Test Subject of Cancer Treatment Drug Which Regulates Splicing Function” (NATIONAL CANCER CENTER, priority 2022, published 2026).

Key:
[1] = test system: PDX tumors (cholangiocarcinoma, pancreatic cancer, gastric cancer, endometrial cancer, uterine sarcoma); test: Therapeutic effect of E7820 in patient-derived xenograft (PDX) mouse models and relationship with gene mutations (Example 1); type: in vivo, human patient-derived tumors in NOG mice
Description: In 30 cases of patient-derived xenograft (PDX) mouse models, the therapeutic effect of the cancer therapeutic E7820 that regulates splicing function and the presence or absence of various gene mutations were evaluated.
PDX model mice were prepared by transplanting 2-3 mm square PDX tumor fragments subcutaneously into the back of test animals and allowing them to grow. The test animals used were NOD.Cg-Prkdcscidll2rgtmlSug/ShiJic (NOG mice), female, and 6 weeks old or older. Tumor tissues from 30 patients, including 9 cases of cholangiocarcinoma, 9 cases of pancreatic cancer, 6 cases of gastric cancer, 3 cases of endometrial cancer, and 3 cases of uterine sarcoma, were used as tumor tissues. Grouping was performed when the average tumor volume of the experimental animals reached a size suitable for grouping (approximately 200 mm^3), with each group consisting of n=3-5 mice.
From the day of grouping, E7820 was administered orally at a dose of 100 mg/kg once daily to the 30 PDX model mice prepared in 1-1. Body weight and tumor volume were measured twice a week during the observation period from the day before drug administration and from the day drug administration started (day 0) to day 21. Tumor volume was measured by measuring the long and short diameters of the tumor using calipers and calculating the tumor volume according to the following formula. For animals with no detectable tumor, the tumor volume was set to 0.00 mm^3.
Tumor volume (mm^3)=½×long diameter (mm)×short diameter (mm)×short diameter (mm)
Whole exome sequencing (WES), one of the next-generation sequencing methods, was performed on genomic DNA extracted from the PDX using the NovaSeq 6000 system (Illumina), and mutation analysis was conducted.

DLD-1 cells (parental) = test: Growth inhibition of DLD-1 cells (parental), 12-day culture, photographed (Example 3); type: cell-based; details: day 12
Description: (§1) DLD-1 cells (parental), DLD-1-BRCA2 KO (BRCA2 KO), or DLD-1-BRCA2 KO+BRCA2 WT (BRCA2 KO+WT) were seeded at 3×10^3 cells per well in a 6-well plate and incubated at 37 °C under 5% CO2. After removing the medium, a medium containing no drug, or containing 100 nM E7820, 1 μM E7820, 1 μM Indisulam (E7070), or 1 μM olaparib was added, and the cells were cultured at 37 °C under 5% CO2. The medium was replaced with fresh medium containing the same concentration of the drug on days 3, 6, and 9, with the day of drug addition being day 0. On day 12, the cells were photographed, and the sensitivity of the cells to each drug was evaluated.

[2] = test system: DLD-1-BRCA2 KO (BRCA2 KO); test: Growth inhibition of DLD-1-BRCA2 KO, 12-day culture, photographed (Example 3); type: cell-based; details: 1 μM; day 12
Description: as §1

[3] = test system: DLD-1-BRCA2 KO+BRCA2 WT (BRCA2 KO+WT); test: Growth inhibition of DLD-1-BRCA2 KO+BRCA2 WT, 12-day culture, photographed (Example 3); type: cell-based; details: 1 μM; day 12
Description: as §1

RBM39 (CAPERα) = details: mechanism of action; Non Patent Literature 1; cited from earlier work
γH2AX in wild-type DLD-1 = test: Induction of DNA double-strand breaks (γH2AX Western blotting) in wild-type DLD-1 (Example 4); type: cell-based; details: 1 μM; 72 hours
Description: DLD-1 cells (parental), DLD-1-BRCA2 KO (BRCA2 KO), or DLD-1-BRCA2 KO+BRCA2 WT (BRCA2 KO+WT) were seeded at 1×10^6 cells per well in a 6-well plate and incubated at 37 °C under 5% CO2. After removing the medium, a medium containing no drug, or containing 1 μM E7820, 1 μM Indisulam (E7070), or 1 μM olaparib was added, and the cells were cultured at 37 °C under 5% CO2 for 72 hours. After removing the medium, the cells were washed with PBS, cooled on ice, and RIPA buffer (containing protease and phosphatase inhibitors, Proteintech) was added. The cells were collected using a cell scraper. The collected samples were incubated on ice for 30 minutes, then centrifuged at 12,000×g for 15 minutes at 4 °C to pellet the cell debris. The supernatant was transferred to a new microtube without touching the pellet to obtain the lysate. The obtained lysate was used for SDS-PAGE, membrane transfer, and Western blotting to evaluate the induction of DNA double-strand breaks. The antibodies used for Western blotting were Anti-phospho-Histone H2A.X (Ser139) Antibody (anti-yH2AX antibody, cat #05-636, Sigma-Aldrich) and GAPDH (14C10) Rabbit mAb (anti-GAPDH antibody, cat #2118, Cell Signaling Technology).

[4] = 100 mg/kg orally once daily, day 21, among 14 cases with tumor reduction
[5] = 100 mg/kg orally once daily, day 21, among 16 cases without tumor reduction

Row | Compound | number of cases with mutations in one or more of BRCA1, BRCA2, ATM, ATR, and BAP1 among the 14 cases with tumor reduction effect [1, 4] [cases] | percentage of cases with mutations in one or more of BRCA1, BRCA2, ATM, ATR, and BAP1 among the 14 cases with tumor reduction effect [1, 4] [%] | number of cases with mutations in one or more of the five genes among the 16 cases without tumor reduction effect [1, 5] [cases] | percentage of cases with mutations in one or more of the five genes among the 16 cases without tumor reduction effect [1, 5] [%] | PDX model mice in which the tumor volume on day 21 was smaller than on day 0 (tumor reduction effect) ([1]; 100 mg/kg orally once daily, day 21 vs day 0) | cases in which no tumor reduction effect was observed ([1]; 100 mg/kg orally once daily, day 21 vs day 0, 30 PDX models) [cases] | tumor reduction effect in model mouse transplanted with a tumor having a mutation in a homologous recombination repair-related gene ([1]; PDX model mouse, tumor with mutation in homologous recombination repair-related gene) | growth inhibitory effect (DLD-1 cells (parental); 100 nM) | growth inhibitory effect (DLD-1 cells (parental); 1 μM) | growth inhibitory effect [2] | induction of cell death [2] | remaining cells [2] | growth inhibitory effect [3] | growth of surviving cells [3] | promotion of the proteasomal degradation of RBM39 (RBM39 (CAPERα)) | growth inhibitory effect (DLD-1 cells (parental); 1 pM (so in the source)) | γH2AX levels (γH2AX in wild-type DLD-1)
1 | Cc1ccc(NS(=O)(=O)c2cccc(C#N)c2)c2[nH]cc(C#N)c12 [E7820, N-(3-cyano-4-methyl-1H-indol-7-yl)-3-cyanobenzenesulfonamide] | 11 | 79 | 3 | 19 | 14 out of the 30 PDX model mice | 16 | high tumor reduction effect | no growth inhibitory effect was observed | no growth inhibitory effect was observed | significant growth inhibitory effects | induction of cell death were observed | almost no remaining cells | growth inhibitory effects were observed | the growth of surviving cells was observed | promotion of the proteasomal degradation of RBM39 |  | 
2 | NS(=O)(=O)c1ccc(S(=O)(=O)Nc2cccc3c(Cl)c[nH]c23)cc1 [Indisulam, N-(3-chloro-1H-indol-7-yl)-4-sulfamoylbenzenesulfonamide] |  |  |  |  |  |  |  |  |  | significant growth inhibitory effects | induction of cell death were observed | almost no remaining cells | growth inhibitory effects were observed | the growth of surviving cells was observed | promotion of the proteasomal degradation of RBM39 | no growth inhibitory effect was observed | 
3 | Nc1ccc(S(=O)(=O)Nc2cnc3c(Cl)cccc3n2)cc1 [NSC339004, 4-amino-N-(5-chloroquinoxalin-2-yl)benzenesulfonamide] |  |  |  |  |  |  |  |  |  |  |  |  |  |  | promotion of the proteasomal degradation of RBM39 |  | 
4 | O=C(c1cc(Cc2n[nH]c(=O)c3ccccc23)ccc1F)N1CCN(C(=O)C2CC2)CC1 [olaparib] |  |  |  |  |  |  |  |  | no growth inhibitory effect was observed | significant growth inhibitory effects | induction of cell death were observed | almost no remaining cells | growth inhibitory effects were observed | the growth of surviving cells was observed |  |  | increase in γH2AX levels
